Details: UPLC quantification of cordycepin; variable mass ratios; FIG. 2

## Nc1ncnc2c1ncn2[C@@H]1O[C@H](CO)C[C@H]1O [Cordycepin, 3′-deoxyadenosine]
  solubility of Cordycepin in Cordyceps extract, TPGS solution vs pure water: did not increase the solubility

Source: patent US20230398234A1, “NOVEL FUNGAL COMPOIND FORMULATIONS AND THEIR THERAPEUTIC METHODS OF USE” (priority 2020, published 2023)
